Substitutions are numbered along the chain they refer to. Entries after “also recorded” stand apart in the source; their conditions may differ.
Assays:
[1] = tested on: cytoplasmic condensates (SINCs); test: Confocal imaging of localization and condensate (body) formation of GFP-fused NPR proteins and variants; format: cell-based, Nicotiana benthamiana; conditions: for SA-induced cytoplasmic body/condensate (SINC) formation: 5 mM SA for 2 hr
Procedure, shortened: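 GFP fusions transiently expressed in N. benthamiana by Agrobacterium infiltration (OD600 1). For NPR1-GFP, 4-day Arabidopsis seedlings were vacuum-infiltrated and, at 48 hpi, soaked 2 h in water or SA. Airyscan confocal, 40× water objective, GFP ex 488 nm/em 505-530 nm; condensate number, size and intensity scored by automated thresholding.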

CUL3 = test: Co-IP of Myc-CUL3 with HA-fused NPR1 or variants; format: binding, Arabidopsis thaliana; conditions: for CUL3 pull-down signal in co-IP: 1 mM SA for 5 hr
[2] = 5 mM SA, single-cell imaging for 2 hr starting 40 min after induction

NPR1: wild-type Arabidopsis thaliana NPR1 protein, positive regulator of systemic acquired resistance
SA-induced cytoplasmic body/condensate (SINC) formation [1]: significant SA-inducible cytoplasmic body formation
number of bodies, time-lapse [1, 2]: started to decrease after 50 min
total fluorescence from each body, time-lapse [1, 2]: gradual increase in the signal intensity over time
CUL3 pull-down signal in co-IP (CUL3): weak pull-down signal of CUL3

O=C(O)c1ccccc1O [SA, salicylic acid]
NPR1-CUL3 and sim3-CUL3 interaction under dose response to SA (CUL3; 0-1 mM SA, 5 hr): increase in the interaction

B1: sim3: SUMOylation-deficient mutant of NPR1 (protein)
chain: MDTTIDGFADSYEISSTSFVATDNTDSSIVYLAAEQVLTGPDVSALQLLSNSFESVFDSPDDFYSDAKLVLSDGREVSFHRCVLSARSSFFKSALAAAKKEKDSNNTAAVKLELKEIAKDYEVGFDSVVTVLAYVYSSRVRPPPKGVSECADENCCHVACRPAVDFMLEVLYLAFIFKIPELITLYQRHLLDVVDKVVIEDTLVILKLANICGKACMKLLDRCKEIIVKSNVDMVSLEKSLPEELVKEIIDRRKELGLEVPKVKKHVSNVHKALDSDDIELVKLLLKEDHTNLDDACALHFAVAYCNVKTATDLLKLDLADVNHRNPRGYTVLHVAAMRKEPQLAASALEKGASASEATLEGRTALMIAKQATMAVECNNIPEQCKHSLKGRLCVEILEQEDKREQIPRDVPPSFAVAADELKMTLLDLENRVALAQRLFPTEAQAAMEIAEMKGTCEFIVTSLEPDRLTGTKRTSPGVKIAPFRILEEHQSRLKALSKTVELGKRFFPRCSAVLDQIMNCEDLTQLACGEDDTAEKRLQKKQRYMEIQETLKKAFSEDNLELGNSSLTDSTSSTSKSTGGKRSNRKLSHRRR
modifications: left off: small tags and cut ends
notes: SUMOylation-deficient mutant of NPR1
condensate formation at lower SA concentration ([1]; 1 mM SA for 5 hr): could form condensates at a lower concentration of SA
CUL3 pull-down signal in co-IP (CUL3): significantly stronger CUL3 pull-down signals

B2: S55/59D: phosphomimic mutant of NPR1 at S55/59 (protein)
chain: B1 chain with S55D, S59D, A345I, A346L, A348L
modifications: left off: small tags and cut ends
SA-induced cytoplasmic body/condensate (SINC) formation [1]: inability to form SINCs; also recorded: fail to form cytoplasmic condensates
CUL3 pull-down signal in co-IP (CUL3): very little signal

Reference: patent US20230227838A1, “ENHANCED CELL SURVIVAL AGAINST BIOTIC AND ABIOTIC STRESSES THROUGH SALICYLICK ACID-INDUCED NPR1 CONDENSATES” (priority 2020, published 2023)
